Results as given in ChEMBL document CHEMBL1141772, “Oxygenated terpenoids from a formosan soft coral Sinularia gibberosa” (2005).
Values after ≈ are worked out from the molar mass of the structure shown. Active and inactive are the calls of the source. No cut-off for these calls is given here.

Columns and labels:
[1] = test system: KB; experiment: Cytotoxicity against human KB cells by MTT assay; format: functional
[2] = Cytotoxicity against human HEPA 59T/VGH cells by MTT assay; format: functional; conditions: read-out: ED50 (the source's name)

In the case of CC(C)[C@]12C=C3[C@](C)(O)CC[C@]3(OO1)[C@@H](C)CC2 (relative stereo) [PEROXYGIBBEROL], the Activity [1] is reported as “inactive” and the EC50 [2] is reported as 8.2 µg/mL (≈ 32.5 µM).
CC(=O)CC[C@@H]1C(=O)C=C(C(C)C)CC[C@@H]1C [GIBBERODIONE] showed an EC50 ([1]; read-out: ED50 (the source's name)) of over 30 µg/mL and an EC50 [2] of over 30 µg/mL.
With C=C1CC/C=C(\C)C[C@H](O)/C(C(C)C)=C\[C@H]2[C@H]1CC[C@]2(C)O [SARCOPHYTOL L] the Activity [1] was “inactive” and the EC50 [2] was 12.6 µg/mL (≈ 41.4 µM).
